≈ marks a conversion by molar mass, not a printed value.
Columns and labels:
[1] = system: Pseudomonas aeruginosa; assay: Antibacterial activity against Pseudomonas aeruginosa ATCC 27853 assessed as inhibition of bacterial growth by CLSI protocol based microtiter broth dilution method; type: functional
[2] = system: Acinetobacter baumannii; assay: Antibacterial activity against Acinetobacter baumannii BAA-16051 assessed as inhibition of bacterial growth by CLSI protocol based microtiter broth dilution method; type: functional
[3] = system: Klebsiella pneumoniae; assay: Antibacterial activity against Klebsiella pneumoniae ATCC 27736 assessed as inhibition of bacterial growth by CLSI protocol based microtiter broth dilution method; type: functional
[4] = system: Bacillus subtilis; assay: Antibacterial activity against Bacillus subtilis incubated for 24 hrs by serial broth dilution method; type: functional
[5] = system: Escherichia coli; assay: Antibacterial activity against Escherichia coli incubated for 24 hrs by serial broth dilution method; type: functional
[6] = system: Staphylococcus aureus; assay: Antibacterial activity against Staphylococcus aureus incubated for 24 hrs by serial broth dilution method; type: functional
[7] = system: Pseudomonas aeruginosa; assay: Antibacterial activity against Pseudomonas aeruginosa incubated for 24 hrs by serial broth dilution method; type: functional
[8] = system: Bacillus subtilis; assay: Antibacterial activity against Bacillus subtilis incubated for 16 hrs by CLSI protocol based microtiter broth dilution method; type: functional
[9] = system: Staphylococcus aureus; assay: Antibacterial activity against Staphylococcus aureus incubated for 16 hrs by CLSI protocol based microtiter broth dilution method; type: functional
[10] = system: Escherichia coli; assay: Antibacterial activity against Escherichia coli incubated for 16 hrs by CLSI protocol based microtiter broth dilution method; type: functional
[11] = system: Pseudomonas aeruginosa; assay: Antibacterial activity against Pseudomonas aeruginosa incubated for 16 hrs by CLSI protocol based microtiter broth dilution method; type: functional
[12] = system: THP-1; assay: (§1) Cytotoxicity against human THP-1 cells assessed as cell survival at 50 uM incubated for 24 hrs by MTT assay (reference value: 100.0 +/- 5.24 %); type: toxicity, cell-based; conditions: thp-1, 24 h, 50 µM
[13] = system: THP-1; assay: (§2) Cytotoxicity against human THP-1 cells assessed as cell survival at 100 uM incubated for 24 hrs by MTT assay (reference value: 100.0 +/- 5.24 %); type: toxicity, cell-based; conditions: thp-1, 24 h, 100 µM
[14] = system: THP-1; assay: Cytotoxicity against human THP-1 cells assessed as cell death at 50 uM incubated for 24 hrs by LDH assay (reference value: 0.00 +/- 0.56 %); type: toxicity, cell-based; conditions: thp-1, 24 h
[15] = system: THP-1; assay: Cytotoxicity against human THP-1 cells assessed as cell death at 100 uM incubated for 24 hrs by LDH assay (reference value: 0.00 +/- 0.56 %); type: toxicity, cell-based; conditions: thp-1, 24 h
[16] = as §1; type: toxicity, cell-based; conditions: THP-1 cells, read-out: Activity
[17] = as §2; type: toxicity, cell-based; conditions: THP-1 cells, read-out: Activity
[18] = system: Klebsiella pneumoniae; assay: Antimicrobial activity against Klebsiella pneumoniae ATCC 27736 infected in neutropenic thigh infection BALB/c mouse model assessed as log reduction in bacterial count in thigh at 50 mg/kg pre-infected with bacteria for 3 to 6 hrs followed by compound administration and measured 36 hrs post infection; type: functional; conditions: time 30-33 hrs

| Compound | MIC [1] | MIC [2] | MIC [3] | also measured |
| --- | --- | --- | --- | --- |
| O=c1oc2ccc(Br)cc2cc1-c1nc2ccccc2n1-c1ccc(Br)cc1 | > 100 µg/mL | > 100 µg/mL | > 100 µg/mL | – |
| O=c1oc2ccccc2c(O)c1C(Sc1nc2ccccc2[nH]1)c1ccc(O)cc1 (configuration not stated) | – | – | – | MIC [4]: 250 µg/mL (≈ 600 µM); MIC [5]: 250 µg/mL (≈ 600 µM) |
| Cc1ccc(-n2c(-c3cc4cc(Cl)ccc4oc3=O)nc3ccccc32)cc1 | > 100 µg/mL | > 100 µg/mL | > 100 µg/mL | – |
| O=c1oc2ccccc2cc1-c1nc2ccccc2n1-c1ccc(Cl)cc1 | > 100 µg/mL | > 100 µg/mL | > 100 µg/mL | – |
| O=C(CC(Sc1nc2ccccc2[nH]1)c1ccccc1)c1cc2ccccc2oc1=O (configuration not stated) | – | – | – | MIC [4]: 2300 µg/mL (≈ 5390 µM); MIC [5]: 2100 µg/mL (≈ 4920 µM); MIC [6]: 2400 µg/mL (≈ 5630 µM); MIC [7]: 2200 µg/mL (≈ 5160 µM) |
| O=c1oc2ccccc2cc1/C(Cn1cnc2ccccc21)=N\Oc1ccc(Cl)cc1 | – | – | – | MIC [8]: 0.95 µg/mL (≈ 2.21 µM); MIC [9]: 1.56 µg/mL (≈ 3.63 µM); MIC [10]: 3.12 µg/mL (≈ 7.26 µM); MIC [11]: 3.12 µg/mL (≈ 7.26 µM) |
| POLYMYXIN B [listing 2 of 2 here] | – | – | – | Activity [12]: 72.77%; Activity [13]: 54.94%; Activity [14]: 19.64%; Activity [15]: 30.59% |
| O=c1oc2ccc(Cl)cc2cc1-c1nc2ccccc2n1-c1ccc(Br)cc1 | > 100 µg/mL | > 100 µg/mL | > 100 µg/mL | – |
| O=c1oc2ccc(Br)cc2cc1-c1nc2ccccc2n1-c1ccccc1 | > 100 µg/mL | > 100 µg/mL | > 100 µg/mL | – |
| Cc1ccc(-n2c(-c3cc4cc(Br)ccc4oc3=O)nc3ccccc32)cc1 | > 100 µg/mL | > 100 µg/mL | > 100 µg/mL | – |
| C[C@@H](O)[C@H]1C(=O)N2C(C(=O)O)=C(S[C@@H]3CN[C@H](C(=O)N(C)C)C3)[C@H](C)[C@H]12 [MEROPENEM] | 6.25 µg/mL (≈ 16.3 µM) | > 50 µg/mL | 0.78 µg/mL (≈ 2.03 µM) | – |
| O=c1oc2ccc(Br)cc2cc1-c1nc2ccccc2n1-c1ccc(Cl)cc1 | > 100 µg/mL | > 100 µg/mL | > 100 µg/mL | – |
| CN[C@H](CC(C)C)C(=O)N[C@H]1C(=O)N[C@@H](CC(N)=O)C(=O)N[C@H]2C(=O)N[C@H]3C(=O)N[C@H](C(=O)N[C@H](C(=O)O)c4cc(O)cc(O)c4-c4cc3ccc4O)[C@H](O)c3ccc(c(Cl)c3)Oc3cc2cc(c3O[C@@H]2O[C@H](CO)[C@@H](O)[C@H](O)[C@H]2O[C@H]2C[C@](C)(N)[C@H](O)[C@H](C)O2)Oc2ccc(cc2Cl)[C@H]1O [VANCOMYCIN] | > 50 µg/mL | 12.5 µg/mL (≈ 8.63 µM) | > 50 µg/mL | viability at 24 h, 50 µM [16]: 66.1%; viability at 24 h, 100 µM [17]: 65.9%; Activity [14]: 6.99%; Activity [15]: 13.88% |

More lines, main results first:

| MIC [1] | MIC [2] | MIC [3] | Compound | also measured |
| --- | --- | --- | --- | --- |
| > 100 µg/mL | > 100 µg/mL | > 100 µg/mL | O=c1oc2ccc(Cl)cc2cc1-c1nc2ccccc2n1-c1ccccc1 | – |
| > 100 µg/mL | > 100 µg/mL | > 100 µg/mL | O=c1oc2ccc(Br)cc2cc1-c1nc2ccccc2[nH]1 | – |
| 1.25 µg/mL | 3.12 µg/mL | 1.25 µg/mL | POLYMYXIN B [listing 1 of 2 here] | – |
| > 100 µg/mL | > 100 µg/mL | > 100 µg/mL | O=c1oc2ccccc2cc1-c1nc2ccccc2n1-c1ccc(Br)cc1 | – |
| > 100 µg/mL | > 100 µg/mL | > 100 µg/mL | O=c1oc2ccc(Cl)cc2cc1-c1nc2ccccc2n1-c1ccc(Cl)cc1 | – |
| > 100 µg/mL | > 100 µg/mL | 6.25 µg/mL (≈ 17.7 µM) | Cc1ccc(-n2c(-c3cc4ccccc4oc3=O)nc3ccccc32)cc1 | viability at 24 h, 50 µM [16]: 94.1%; viability at 24 h, 100 µM [17]: 27.3%; Activity [14]: 11.25%; Activity [15]: 16.88%; log(activity) [18]: >2 |
| > 100 µg/mL | > 100 µg/mL | > 100 µg/mL | O=c1oc2ccc(Cl)cc2cc1-c1nc2ccccc2[nH]1 | – |
| > 100 µg/mL | > 100 µg/mL | > 100 µg/mL | O=c1oc2ccccc2cc1-c1nc2ccccc2n1-c1ccccc1 | – |
| > 100 µg/mL | > 100 µg/mL | 6.25 µg/mL (≈ 19.6 µM) | CCCCn1c(-c2cc3ccccc3oc2=O)nc2ccccc21 | viability at 24 h, 50 µM [16]: 89.7%; viability at 24 h, 100 µM [17]: 27.7%; Activity [14]: 8.01%; Activity [15]: 11.43%; log(activity) [18]: >2 |
